Structures are written as SMILES. Converted amounts (≈) assume the structure as drawn. The source made the active and inactive calls. The rule behind the calls is not given here.

Results on 5 compounds are retold here after ChEMBL document CHEMBL1649218, “New treatment option for second-stage African sleeping sickness: in vitro and in vivo efficacy of aza analogs of DB289” (Antimicrob Agents Chemother, 2009).

The test system of assay [1] is Trypanosoma brucei brucei. The experiment in a line: Antitrypanosomal activity against Trypanosoma brucei brucei GVR35 infected in NMRI mouse CNS model assessed as survival of mouse at 10 mg/kg, po for 10 days. In kind it is functional.
For assay [2], the system named is Trypanosoma brucei rhodesiense. The experiment in a line: Antitrypanosomal activity against wild-type Trypanosoma brucei rhodesiense STIB900 infected in NMRI mouse assessed as survival of mouse at 100 mg/kg, po for 4 days. In kind it is functional.
For assay [3], the system named is Trypanosoma brucei brucei. The experiment in a line: Antitrypanosomal activity against Trypanosoma brucei brucei GVR35 infected in NMRI mouse CNS model assessed as survival of mouse at 75 mg/kg, po for 5 days. In kind it is functional.
For assay [4], the system named is Trypanosoma brucei rhodesiense. The experiment in a line: Antitrypanosomal activity against wild-type Trypanosoma brucei rhodesiense STIB900 infected in NMRI mouse assessed as survival of mouse at 5 mg/kg, po for 4 days. In kind it is functional.
For assay [5], the system named is Trypanosoma brucei rhodesiense. Put plainly: Antitrypanosomal activity against wild-type Trypanosoma brucei rhodesiense STIB900 infected in NMRI mouse assessed as survival of mouse at 25 mg/kg, po for 4 days. In kind it is functional.
Assay [6] relates to Trypanosoma brucei rhodesiense. The experiment in a line: Antitrypanosomal activity against wild-type Trypanosoma brucei rhodesiense STIB900 infected in NMRI mouse assessed as cure from infection at 25 mg/kg, po for 4 days. The arrangement: dose 25 mg/kg. In kind it is functional, organism-based.
The test system of assay [7] is Trypanosoma brucei brucei. The experiment in a line: Antitrypanosomal activity against Trypanosoma brucei brucei GVR35 infected in NMRI mouse CNS model assessed as survival of mouse at 100 mg/kg, po for 5 days. In kind it is functional.
The nature of assay [8]: Ratio of IC50 for Trypanosoma brucei gambiense K03048 to IC50 for wild-type Trypanosoma brucei rhodesiense STIB900. In kind it is functional.
Assay [9] has as its system Trypanosoma brucei gambiense. Put plainly: Antitrypanosomal activity against Trypanosoma brucei gambiense ITMAP141267 by Alamar blue assay. In kind it is functional, organism-based.
Assay [10] concerns Trypanosoma brucei gambiense. Put plainly: Antitrypanosomal activity against Trypanosoma brucei gambiense K03048 by Alamar blue assay. In kind it is functional, organism-based.
Assay [11] deals with Trypanosoma brucei brucei. Put plainly: Antitrypanosomal activity against Trypanosoma brucei brucei AT1KO by Alamar blue assay. In kind it is functional, organism-based.
Assay [12] is described as follows: Ratio of IC50 for Trypanosoma brucei gambiense STIB930 to IC50 for wild-type Trypanosoma brucei rhodesiense […]. In kind it is functional.
In assay [13] the test system is Trypanosoma brucei brucei. Put plainly: Ratio of IC50 for Trypanosoma brucei brucei AT1KO to IC50 for Trypanosoma brucei brucei BS221. In kind it is functional.
Assay [14] has as its system Trypanosoma brucei rhodesiense. The experiment in a line: Ratio of IC50 for pentamidine-resistant Trypanosoma brucei rhodesiense STIB900 to IC50 for wild-type Trypanosoma brucei rhodesiense STIB900. In kind it is functional.
In assay [15] the test system is Trypanosoma brucei brucei. Put plainly: Antitrypanosomal activity against Trypanosoma brucei brucei BS221 by Alamar blue assay. In kind it is functional, organism-based.
In assay [16] the test system is Trypanosoma brucei gambiense. Put plainly: Antitrypanosomal activity against Trypanosoma brucei gambiense STIB930 by Alamar blue assay. In kind it is functional, organism-based.
Assay [17] in a line: Ratio of IC50 for Trypanosoma brucei gambiense ITMAP141267 to IC50 for wild-type Trypanosoma brucei rhodesiense […]. In kind it is functional.
The test system of assay [18] is Trypanosoma brucei rhodesiense. Put plainly: Antitrypanosomal activity against pentamidine-resistant Trypanosoma brucei rhodesiense STIB900 by Alamar blue assay. In kind it is functional, organism-based.
The subject of assay [19] is Trypanosoma brucei gambiense. The experiment in a line: Ratio of IC50 for Trypanosoma brucei gambiense K03048 to IC50 for Trypanosoma brucei gambiense STIB930. In kind it is functional.
In assay [20] the test system is Trypanosoma brucei rhodesiense. Put plainly: Antitrypanosomal activity against melasoprol-resistant Trypanosoma brucei rhodesiense STIB900 by Alamar blue assay. In kind it is functional, organism-based.
Assay [21] deals with Trypanosoma brucei rhodesiense. The experiment in a line: Antitrypanosomal activity against wild-type Trypanosoma brucei rhodesiense STIB900 by Alamar blue assay. In kind it is functional, organism-based.
In assay [22] the test system is Trypanosoma brucei rhodesiense. Put plainly: Ratio of IC50 for melasoprol-resistant Trypanosoma brucei rhodesiense STIB900 to IC50 for wild-type Trypanosoma brucei rhodesiense […]. In kind it is functional.
For assay [23], the system named is Trypanosoma brucei rhodesiense. The experiment in a line: Antitrypanosomal activity against wild-type Trypanosoma brucei rhodesiense STIB900 infected in NMRI mouse assessed as survival of mouse at 20 mg/kg, ip for 4 days. In kind it is functional. The note with it: route intraperitoneal.
In assay [24] the test system is Trypanosoma brucei rhodesiense. Put plainly: Antitrypanosomal activity against wild-type Trypanosoma brucei rhodesiense STIB900 infected in NMRI mouse assessed as survival of mouse at 5 mg/kg, ip for 4 days. In kind it is functional. The following applies: route intraperitoneal.
The subject of assay [25] is Trypanosoma brucei rhodesiense. Put plainly: Antitrypanosomal activity against wild-type Trypanosoma brucei rhodesiense STIB900 infected in NMRI mouse assessed as cure from infection at 100 mg/kg, po for 4 days. In kind it is functional, organism-based. On the set-up: dose 100 mg/kg.

Consider `N=C(NO)c1ccc(-c2ccc(-c3ccc(/C(N)=N/O)cn3)o2)cc1`, for which the result in assay [1] was Active. In assay [2], the MSD was >54 days.

On to `CO/N=C(/N)c1ccc(-c2ccc(-c3ccc(/C(N)=N/O)cc3)o2)nc1`, for which the result in assay [1] and in assay [6] was Active. The MSD in [3] was >166 days; in assay [4] it was >52.75 days; in [2], >60 days; in assay [5], >60 days; in assay [7] it was >180 days.

As for `Nc1nc(N)nc(Nc2ccc([As]3SCC(CO)S3)cc2)n1` (configuration not stated) [MELARSOPROL], the Ratio IC50 in assay [8] was determined as 2.3; in assay [12] it was 3.9; in assay [13], 5.2; in assay [14], 20.9; in assay [17], 2; in [19], 14. Moreover, the “Ratio IC50” value in assay [22] was determined as 42. The IC50 turned out to be 2.7 ng/mL in assay [9]; 3.1 ng/mL in [10]; 18.7 ng/mL in assay [11]; 3.6 ng/mL in [15]; 5.3 ng/mL in [16]; 28.2 ng/mL in assay [18]. The IC50 in [20] came to 56.7 ng/mL; in assay [21], 1.4 ng/mL.

Take `N=C(N)c1ccc(OCCCCCOc2ccc(C(=N)N)cc2)cc1` [PENTAMIDINE]: the Ratio IC50 in assay [8] is 13.1; in assay [12], 0.9; in assay [13], 4.3; in assay [14], 113.1; in [17], 3.6; in [22] it was 105.4. Further, the IC50 in assay [9] was determined as 4.2 ng/mL (≈ 0.0123 µM); in assay [10] it was 15.5 ng/mL (≈ 0.0455 µM); in assay [11], 4.1 ng/mL (≈ 0.012 µM); in assay [15], 0.9 ng/mL (≈ 0.00264 µM); in [16] it was 1.1 ng/mL (≈ 0.00323 µM); in assay [18], 134 ng/mL (≈ 0.392 µM). In addition, the IC50 is 124 ng/mL (≈ 0.366 µM) in assay [20] and 1.2 ng/mL (≈ 0.00352 µM) in [21]. In addition, the MSD in [23] is >57.5 days; in assay [24], >45 days.

For `N=C(NO)c1ccc(-c2ccc(-c3ccc(/C(N)=N\O)cc3)o2)cc1`, in [2], the MSD was found to be 50 days. For the same compound, in assay [25], the result was inactive.
